From patent US8835455B2, “Crystalline forms of trans-7-oxo-6-(sulphooxy)-1,6-diazabicyclo[3,2,1]octane-2-carboxamide sodium salt” (Forest Laboratories Holdings Limited, priority 2009, dated 2014)
Where two headings read alike, the source gives them in different places.

Key:
[1] = Behaviour of crystalline forms in humid atmosphere; type: physicochemical
From the text: The invention also relates to processes for making a dihydrate form of the sodium salt of (1R,2S,5R)-7-oxo-6-sulphooxy-1,6-diazabicyclo[3.2.1]octane-2-carboxamide called Form III. In exemplary embodiments, crystals of Form II are suspended in water, and the suspension is then left to evaporate slowly in a humid atmosphere. Crystals can also been obtained by trituration of crystals of Form II in water or in an alkanol-water mixture, or by conversion, in a humid atmosphere, of the anhydrous Form I and Form IV to the monohydrated Form II and then to the dihydrated Form III.

[2] = Phase I study, safety and tolerability; type: in vivo, healthy male and female subjects; settings: healthy subjects, IV
Procedure: (§1) A single center, two-part randomized Phase I Study was conducted to evaluate the safety, tolerability, and pharmacokinetics of single and multiple intravenous doses of ceftaroline fosamil and NXL-104 in healthy male and female subjects, aged 18 through 45 years.
(§2) Part A was an open-label, 3-way crossover, single-dose study to evaluate the safety, tolerability, and pharmacokinetics of ceftaroline and NXL-104 following co-administration of a single intravenous (IV) dose of ceftaroline fosamil and NXL-104 in 12 healthy subjects.
The following procedures were performed and recorded at screening: • Collect blood samples for serology testing, hematology evaluation (including CBC, prothrombin time and international normalized ratio [PT/INR], partial thromboplastin time [PTT], free hemoglobin, haptoglobin, and reticulocyte count), and comprehensive metabolic panel • Collect urine for UA (including urine microscopy) and for drugs-of-abuse screen • Perform β-HCG serum pregnancy test (female subjects only) • Calculate CrCl and BMI • Assess vital signs • Perform 12-lead ECG • Perform complete physical examination • Assess prior medications • Record medical and surgical history • Record any spontaneously reported AE or SAE between signing of informed consent and Day —1 for subjects who comply with all screening processes […]

[3] = Phase I study Part A, single IV dose, plasma pharmacokinetics; type: in vivo, healthy male and female subjects; settings: for pharmacokinetic interaction between ceftaroline fosamil and NXL-104: Phase I Part A, single 600 mg IV doses alone or concomitant; for half-life / AUC(0-inf) / Cmax / T1/2: Geo mean; for Tmax: Median
Procedure: as §1, §2
Treatment A: single dose of 600 mg ceftaroline fosamil via IV infusion over one hour.
Treatment B: single dose of 600 mg NXL-104 via IV infusion over one hour.
Treatment C: single dose of 600 mg ceftaroline fosamil and 600 mg NXL-104 via concomitant IV infusion over one hour.
Blood samples were collected at the following times to determine ceftaroline, ceftaroline fosamil, ceftaroline M-1 (metabolite of ceftaroline fosamil), and NXL-104 free-acid plasma concentrations.
Days 1 (Period I), 6 (Period II), and 11 (Period III): in each study period immediately before (within 15 minutes) the start of infusion and after the start of study drug infusion at 20, 40, 60 (immediately before the end of study-drug infusion), 65, and 75 minutes and at 1.5, 2, 3, 4, 6, 8, 12, 18, 24, 36, and 48 hours
The principal parameters describing the pharmacokinetics of ceftaroline, ceftaroline fosamil, ceftaroline M-1 (metabolite of ceftaroline fosamil), and NXL-104 were derived from plasma concentrations using noncompartmental analysis with the software program WinNonlin. Plasma concentrations below the limit of quantification were treated as zero for all PK calculations. The actual sampling times were used in the calculations of PK parameters.
The following PK parameters were determined for ceftaroline, ceftaroline ceftaroline M-1, and NXL-104 free acid: AUC0-t and area under the plasma concentration versus time curve from time zero to infinity (AUC0-∞), Cmax, time of maximum plasma concentration (Tmax), CL, volume of distribution (VA and steady-state volume of distribution (Vss). Minimum plasma concentration (Cmin), accumulation ratio (Rac), and area under the plasma concentration versus time curve during the dosing interval, τ, (AUC0-τ) will be determined following multiple-dose administration.
Because all doses of ceftaroline are expressed in terms of anhydrous, acetate-free ceftaroline fosamil (ceftaroline prodrug, molecular weight=684.68), the following corrections were made to the dose when calculating PK parameters that include doses for ceftaroline (molecular weight=604.70) and ceftaroline M-1 (molecular weight=622.72): Ceftaroline dose=0.883×ceftaroline fosamil dose Ceftaroline M-1 dose=0.909×ceftaroline fosamil dose
The Cmax of ceftaroline, ceftaroline fosamil, ceftaroline M-1, and NXL-104 free acid was determined observationally as the peak concentration for each subject. Tmax was determined as the time corresponding to Cmax.
Area under the plasma concentration versus time curve up to the time corresponding to the last measurable concentration (AUC0-t) was calculated by numeric integration using the linear trapezoidal rule as follows:
Estimates of T1/2 were calculated using the following equation: T1/2=0.693/λz
The AUC0-∞ was calculated according to the following equation: AUC0-∞=AUC0-t+Clast/λz
CL was calculated with the following equation: CL=Doseiv/AUC0-∞
Vz based on the terminal phase was determined as: Vz=Doseiv/λz×AUC0-∞
In part A, PK parameters were compared by analysis of variance using SAS version 9.1.3 on a UNIX operating system. A general linear model with sequence, subject within sequence, treatment, and period as factors was used as the basis for the analysis. […]

[4] = Assay for NXL-104 and related substances (reverse phase gradient HPLC, UV 195 nm) on stored samples; type: physicochemical; settings: vial at 25° C./60% RH
Procedure: Assay for NXL-104 and Related Substances
NXL-104 and related substances in compositions comprising trans-7-oxo-6-(sulphooxy)-1,6-diazabicyclo[3,2,1]octane-2-carboxamide sodium salt were determined by a reverse phase gradient HPLC method with UV detection at 195 nm.
(§3) The following parameters were used for analysis:
(§4) Column: Inertsil ODS-3, 250 mm×4.6 mm, 5 μm
Mobile Phase A: 100 mM KH2PO4 Solution
Mobile Phase B: Acetonitrile: Water, [50:50 (v:v)]
(§5) Column Temperature: 25° C.
Autosampler Temperature: 5° C.
(§6) Detector/Setting: UV/195 nm
Run Time: about 25 minutes
Injector Washing Solution: Acetonitrile:Water, [10:90 (v:v)]
Approximate relative retention times (RRT) values for trans-7-oxo-6-(sulphooxy)-1,6-diazabicyclo[3,2,1]octane-2-carboxamide sodium salt and disulfate were 1.00 and 0.37.
The stability of amorphous trans-7-oxo-6-(sulphooxy)-1,6-diazabicyclo[3,2,1]octane-2-carboxamide sodium salt stored in a vial stored at 25° C. with a relative humidity of 60% (25° C./60% RH) was evaluated using the NXL-104 assay described above.
NXL-104 and related substances were measured according to the assay described in Example 6.

[5] = Decarbonyl degradation product of NXL-104 (reverse phase gradient HPLC, UV 195 nm); type: physicochemical; settings: vial at 25° C./60% RH
Procedure: The decarbonyl degradation product of trans-7-oxo-6-(sulphooxy)-1,6-diazabicyclo[3,2,1]octane-2-carboxamide sodium salt was determined by a reverse phase gradient HPLC method with UV detection at 195 nm.
as §3, §4
Mobile Phase A: Deionized Water
Mobile Phase B: 50 mM KH2PO4 solution: Acetonitrile, [50:50 (v:v)]
as §5, §6
Run Time (Approximate): 35 minutes
Injector Washing Solution: Acetonitrile:Water, [50:50 (v:v)] (Recommended)
Approximate relative retention time (RRT) for decarbonyl was 0.17.

[6] = pH of stability samples; type: physicochemical; settings: vial at 25° C./60% RH
[7] = both sexes, human, plasma, iv, 600 mg, Treatment 600 mg Ceftaroline fosamil
[8] = both sexes, human, plasma, iv, 600 mg, Treatment 600 mg Ceftaroline fosamil, read-out: AUC0-inf
[9] = both sexes, human, plasma, iv, 600 mg, Treatment 600 mg Ceftaroline fosamil, read-out: Cmax
[10] = both sexes, human, plasma, iv, 600 mg, Treatment 600 mg NXL-104 + Ceftaroline fosamil 600 mg
[11] = both sexes, human, plasma, iv, 600 mg, Treatment 600 mg NXL-104 + Ceftaroline fosamil 600 mg, read-out: AUC0-inf
[12] = both sexes, human, plasma, iv, 600 mg, Treatment 600 mg NXL-104 + Ceftaroline fosamil 600 mg, read-out: Cmax
[13] = both sexes, human, plasma, iv, Treatment 600 mg Ceftaroline fosamil, read-out: Tmax
[14] = Treatment 600 mg Ceftaroline fosamil
[15] = Treatment 600 mg NXL-104 + Ceftaroline fosamil 600 mg

Structure (SMILES): NC(=O)[C@@H]1CC[C@@H]2CN1C(=O)N2OS(=O)(=O)[O-].[Na+] [Form III, trans-7-oxo-6-(sulphooxy)-1,6-diazabicyclo[3,2,1]octane-2-carboxamide sodium salt]
- stability at higher humidities [1]: particularly stable

Structure (SMILES): CCO/N=C(\C(=O)N[C@@H]1C(=O)N2C(C(=O)[O-])=C(Sc3nc(-c4cc[n+](C)cc4)cs3)CS[C@H]12)c1nsc(NP(=O)(O)O)n1 [ceftaroline fosamil, (6R,7R)-7-{(2Z)-2-(ethoxyimino)-2-[5-(phosphonoamino)-1,2,4-thiadiazol-3-yl]acetamido}-3-{[4-(1-methylpyridin-1-ium-4-yl)-1,3-thiazol-2-yl]sulfanyl}-8-oxo-5-thia-1-azabicyclo[4.2.0]oct-2-ene-2-carboxylate]
- safety [2]: no safety concerns
- pharmacokinetic interaction between ceftaroline fosamil and NXL-104 [3]: no pharmacokinetic interactions
- half-life [3, 7]: 0.084 h
- AUC(0-inf) [3, 8]: 2170 ng·h/mL
- Cmax [3, 9]: 2110 ng/mL
- half-life [3, 10]: 0.055 h
- AUC(0-inf) [3, 11]: 2160 ng·h/mL
- Cmax [3, 12]: 2370 ng/mL
- Tmax [3, 13]: 0.67 h

Structure (SMILES): NC(=O)[C@@H]1CC[C@@H]2CN1C(=O)N2OS(=O)(=O)[O-].[Na+] [amorphous NXL-104, trans-7-oxo-6-(sulphooxy)-1,6-diazabicyclo[3,2,1]octane-2-carboxamide sodium salt]
- Disulfate ([4]; 1 month): 0.19%
- NXL-104 % ([4]; 1 month): 111.3%
- Total Impurities, NXL-104 related ([4]; 1 month): 0.89%
- Disulfate ([4]; 3 months): 0.17%
- NXL-104 % ([4]; 3 months): 108.0%
- Total Impurities, NXL-104 related ([4]; 3 months): 0.92%
- Disulfate ([4]; 6 months): 0.17%
- NXL-104 % ([4]; 6 months): 106.1%
- Total Impurities, NXL-104 related ([4]; 6 months): 0.87%
- Disulfate ([4]; Initial): 0.19%
- NXL-104 % ([4]; Initial): 106.4%
- Total Impurities, NXL-104 related ([4]; Initial): 0.90%
- Decarbonyl ([5]; 1 month): 0.46%
- Decarbonyl ([5]; 3 months): 0.48%
- Decarbonyl ([5]; 6 months): 0.33%
- Decarbonyl ([5]; Initial): 0.63%
- pH ([6]; 1 month): 7.3
- pH ([6]; 3 months): 7.2
- pH ([6]; 6 months): 7.3
- pH ([6]; Initial): 7.0

Structure (SMILES): CCO/N=C(\C(=O)N[C@H](C(=O)[O-])[C@@H]1NC(C(=O)[O-])=C(Sc2nc(-c3cc[n+](C)cc3)cs2)CS1)c1nsc(N)n1.[H+] [Ceftaroline M-1]
- AUC(0-inf) [3, 14]: 16420 ng·h/mL
- Cmax [3, 14]: 3290 ng/mL
- T1/2 [3, 14]: 3.75 h
- Tmax [3, 14]: 1.08 h
- AUC(0-inf) [3, 15]: 15780 ng·h/mL
- Cmax [3, 15]: 3210 ng/mL
- T1/2 [3, 15]: 3.78 h
- Tmax [3, 15]: 1.04 h

Structure (SMILES): CCO/N=C(\C(=O)N[C@@H]1C(=O)N2C(C(=O)[O-])=C(Sc3nc(-c4cc[n+](C)cc4)cs3)CS[C@H]12)c1nsc(N)n1 [Ceftaroline]
- half-life [3, 7]: 2.51 h
- AUC(0-inf) [3, 8]: 61000 ng·h/mL
- Cmax [3, 9]: 24800 ng/mL
- half-life [3, 10]: 2.47 h
- AUC(0-inf) [3, 11]: 60000 ng·h/mL
- Cmax [3, 12]: 26700 ng/mL
- Tmax [3, 13]: 1 h

Structure (SMILES): NC(=O)[C@@H]1CC[C@@H]2CN1C(=O)N2OS(=O)(=O)[O-].[Na+] [NXL-104, trans-7-oxo-6-(sulphooxy)-1,6-diazabicyclo[3,2,1]octane-2-carboxamide sodium salt]
- safety [2]: no safety concerns
- pharmacokinetic interaction between ceftaroline fosamil and NXL-104 [3]: no pharmacokinetic interactions
- half-life [3, 10]: 1.63 h
- AUC(0-inf) [3, 11]: 51200 ng·h/mL
- Cmax [3, 12]: 29100 ng/mL
- half-life ([3]; both sexes, human, plasma, iv, 600 mg, Treatment 600 mg NXL-104): 1.64 h
- AUC(0-inf) ([3]; both sexes, human, plasma, iv, 600 mg, Treatment 600 mg NXL-104, read-out: AUC0-inf): 51900 ng·h/mL
- Cmax ([3]; both sexes, human, plasma, iv, 600 mg, Treatment 600 mg NXL-104, read-out: Cmax): 29500 ng/mL
- Tmax ([3]; both sexes, human, plasma, iv, Treatment 600 mg NXL-104, read-out: Tmax): 1 h
